{"source": "patent US20150082479A1", "about": "“CHEMICAL SELECTION OF RESISTANT GAMETES OF PLANTS IN THE FIELD” (PIONEER HI BRED INTERNATIONAL INC, priority 2008, published 2015)", "assay_type_in_all_cases": "in vivo, maize", "key": {"[1]": {"test_system": "non-transgenic gametes", "assay": "Field application of herbicide to hemizygous glyphosate resistant plants at V12-V19; crosses, progeny seedlings sprayed, survivors counted, chi square of segregation ratios", "method": "The elimination of non-transgenic gametes was also tested at the V12-V19 stages. Meiosis sorted the transgene of a diploid hemizygous microsporophyte or macrosporophyte into one-half of the gametes. The resulting transgenic construct contained a gene conferring plant resistance or tolerance to a specific herbicide, namely glyphosate. Application of the herbicide treatments at various growth phases eliminated gametes lacking the transgenic construct.\nGlyphosate treatments included: V12, V17, V19, V15+V17, and V17+V19. Each application, included splits 3 quarts/A. Only resistant plants were sprayed. Glufosinate treatments included: V12, V17, V18, V19, V15+V17, and V17+V19. Each application, included splits 1.5 quarts/A. Only resistant plants were sprayed.\nPollination of the sprayed resistant plants included: 4 selfed, 4 pollinations from unsprayed resistant, 4 pollinations from susceptible. Pollination of the unsprayed resistant plants included: 4 selfed, 4 pollinations from sprayed resistant, 4 pollinations from susceptible. […]\nSurvivors were counted and chi square analysis performed to determine whether segregation ratios deviated from the null hypothesis (e.g., 75:25 resistant phenotype for selfs or crosses within the resistant hemizygous hybrids, 50:50 resistant phenotype for crosses between resistant and susceptible hybrids, or 100% mortality for susceptible selfed seed)."}, "[2]": {"test_system": "wild type pollen", "assay": "Treated heterozygous plants crossed onto wild type inbred; progeny leaf dip test (rag doll, 2% v/v RoundUp Ultra)", "source_text": "(§1) Four row plots of a heterozygous inbred for glyphosate resistance were established. At the V10, V12, V14 and V10+V14 stages of plant development, glyphosate was broadcast to the center two rows. The WeatherMax glyphosate formulation was applied at 0, 1.6 and 3.2 l/Ha, such rates corresponding to 0, 1 and 2 times the normal commercial rates in corn production. To assure there was no glyphosate drift on the non-treated controls, non-treated plants were separated by 16 border rows.\n(§2) A series of crosses were made from the treated plants to identify the gamete rouging effects of glyphosate on both pollen and ovules. To characterize the effects on pollen, heterozygous plants treated with glyphosate were crossed onto a wild type inbred. To characterize the effect of glyphosate on ovules, non-treated wild type pollen was crossed to heterozygous plants treated with glyphosate. Finally, the treated heterozygous plants were selfed and tested for zygosity via quantitative PCR.\n(§3) The progeny of the various crosses from Example 2 were evaluated by two methods. In the first method, 25 seeds per replication (4 replications in total) were planted into rag dolls and grown at 25° C. in darkness four days. After this time, the rag dolls were transferred to a greenhouse to allow the shoots to turn green. After four days in the greenhouse, seedlings for each rag doll were dipped in a 2% v/v solution of RoundUp Ultra (concentration corresponding to common concentrations in spray applications at the field level). After one week, individual plants were rated as normal, dead or abnormal. Normal plants were assumed to carry the gene for tolerance to glyphosate, dead plants were assumed to be wild type.\nThe crosses separated the effects of glyphosate on pollen and ovule gametes. To separate effects on pollen, heterozygous plants were sprayed with glyphosate and pollen collected from treated plants was crossed onto homozygous wild type plants. […]"}, "[3]": {"test_system": "wild type gametes", "assay": "Treated hemizygous plants selfed; progeny scored for level of zygosity via QtPCR", "source_text": "as §2\nIn the second method of analysis, the glyphosate resistant selfed plants were grown in the field and leaf punched at the V8 stage of development. Leaf tissues were then frozen and scored for their level of zygosity according to standard PCR protocols for glyphosate resistance. The data from the progeny tests was arc sine transformed and submitted to a common analysis of variance. Since the F-test for overall treatments was highly significant, tests of significance between the controls and the various treatments were also conducted.\nPlants hemizygous for glyphosate resistance were sprayed with glyphosate and then selfed. The progeny were then scored for level of zygosity via QtPCR. While the results from PCR corroborate data from the leaf dip assays, the magnitude of the response is less (as expressed in FIG. 10)."}, "[4]": {"test_system": "wild type ovules", "assay": "Non-treated wild type pollen crossed to treated heterozygous plants; progeny leaf dip test", "source_text": "as §1, §2, §3\nThe effects of glyphosate on wild type ovules were less pronounced than for pollen gametes (as expressed in FIG. 8). In the control treatment, untreated heterozygous plants were pollinated with homozygous wild type pollen. Expected segregation ratios for the progeny of this cross would be 50% resistant and 50% susceptible. Here, the control progeny segregated at 54% resistant, statistically equal to the expected ratio of 50%. […] At the highest rate of glyphosate, the segregation of progeny was clearly disturbed. High rates applied at the V14 stage produced progeny nearly 100% resistant, while applications made before V14 were intermediate."}, "[5]": {"test_system": "wild type gametes", "assay": "Treated heterozygous plants selfed; progeny leaf dip test", "details": "all treatments except V12 at the lowest rate, non-treated 75% (FIG. 9)", "source_text": "as §1, §2\nThe progeny of the various crosses from Example 2 were evaluated by two methods. In the first method, 25 seeds per replication (4 replications in total) were planted into rag dolls and grown at 25° C. in darkness four days. After this time, the rag dolls were transferred to a greenhouse to allow the shoots to turn green. […]"}}, "data": [{"smiles": "O=C(O)CNCP(=O)(O)O", "note": "[glyphosate]", "values": [{"measurement": "elimination of non-transgenic gametes", "setting": "[1]; application at V12, 3 quarts/A, glyphosate resistant plants (FIG. 1)", "value": "eliminated most non-transgenic female and male gametes"}, {"measurement": "elimination of non-transgenic gametes", "setting": "[1]; application at V15 or later, 3 quarts/A, glyphosate resistant plants (FIGS. 2-5)", "value": "primarily eliminated non-transgenic female gametes"}, {"measurement": "effect on wild type pollen: dependence on rate or time of application", "setting": "[2]; 1.6 vs 3.2 l/Ha, V10, V12, V14, V10+V14", "value": "not affected by rate or time of application"}, {"measurement": "rouging of wild type pollen (leaf dip test)", "setting": "[2]; V10, V12, V14, V10+V14, 1.6 and 3.2 l/Ha (FIG. 7)", "value": "highly effective in rouging wild type pollen"}, {"measurement": "progeny resistant to glyphosate", "setting": "[2]; treated plants crossed to wild type ovules, all rates and timings, expected 50% if no effect (FIG. 7)", "value": "~100", "unit": "%"}, {"measurement": "ratio of homozygous wild type plants in selfed progeny (QtPCR)", "setting": "[3]; sprayed then selfed (FIG. 10)", "value": "significantly reduced the ratio of homozygous wild type plants"}, {"measurement": "percentage of homozygous glyphosate resistant plants in selfed progeny (QtPCR)", "setting": "[3]; two pass applications at the highest rates (FIG. 10)", "value": "produced the greatest percentage of homozygous glyphosate resistant plants"}, {"measurement": "progeny resistant to glyphosate", "setting": "[4]; high rates applied at V14, expected 50% if no effect (FIG. 8)", "value": "~100", "unit": "%"}, {"measurement": "progeny resistant to glyphosate", "setting": "[4]; highest rate, applications made before V14 (FIG. 8)", "value": "intermediate"}, {"measurement": "segregation of progeny", "setting": "[4]; treated at V10 and V12 at the lowest rate, pollinated with wild type pollen (FIG. 8)", "value": "segregated as expected if glyphosate had no affect on wild type ovules"}, {"measurement": "progeny resistant to glyphosate", "setting": "[4]; two pass program V10+V14 (FIG. 8)", "value": "~100", "unit": "%"}, {"measurement": "progeny resistant to glyphosate", "setting": "[5]", "value": "~100", "unit": "%"}]}]}
